Read-outs that look alike come from different tables or passages of the source.
What was measured:
[1] = target: T1, Human mTOR (FLAG-TOR) (Homo sapiens, UniProt P42345); assay: Human mTOR kinase assay with purified enzyme, DELFIA format; type: biochemical
T1 construct: FLAG
Experimental: Enzymes are first diluted in kinase assay buffer (10 mM HEPES (pH 7.4), 50 mM NaCl, 50 mM β-glycerophosphate, 10 mM MnCl2, 0.5 mM DTT, 0.25 mM microcystin LR, and 100 mg/mL BSA). To each well, 12 μL of the diluted enzyme is mixed briefly with 0.5 μL test inhibitor or control vehicle dimethylsulfoxide (DMSO). […] The reaction plate is incubated for 2 hours (linear at 1-6 hours) at room temperature with gentle shaking and then terminated by adding 25 μL Stop buffer (20 mM HEPES (pH 7.4), 20 mM EDTA, 20 mM EGTA). […] The DELFIA Assay buffer and Enhancement solution can be purchased from PerkinElmer. 45 μL of the terminated kinase reaction mixture is transferred to a MaxiSorp plate (Nunc) containing 55 μL PBS. The His6-S6K is allowed to attach for 2 hours after which the wells are aspirated and washed once with PBS. 100 μL of DELFIA Assay buffer with 40 ng/mL Eu—P(T389)-S6K antibody is added. The antibody binding is continued for 1 hour with gentle agitation. The wells are then aspirated and washed 4 times with PBS containing 0.05% Tween-20 (PBST). 100 μL of DELFIA Enhancement solution is added to each well and the plates are read in a PerkinElmer Victor model plate reader. Data obtained is used to calculate enzymatic activity and enzyme inhibition by potential inhibitors.

[2] = target: T2, PI3K (Homo sapiens, UniProt P48736); assay: Fluorescence polarization assay for PI3K; type: biochemical; conditions: read-out: PI3 Kinase γ IC50
T2 construct: PI3 Kinase γ IC50; other: PI3 Kinase γ; other: PI3 Kinase γ isoform, fluorescence polarization
Experimental: (§1) This assay is used to determine the IC50 of compounds of the present invention as it identifies inhibitors of PI3 kinase by measuring inhibition.
(§2) The assay is run by placing 5 μL of diluted enzyme per well, then 5 μL of diluted compound (or 9.5 μL enzyme then 0.5 μL compound in DMSO) is added and mixed. Then, 10 μL substrate is added to start the reaction. The samples are incubated 30-60 minutes, then the reaction is stopped by adding 20 μL stop/detector mix. PI3K is diluted with reaction buffer (e.g., 5 μL or 7.5 μL PI3K into 620 μL reaction buffer), and 5 μL of diluted enzyme is used per well. 5 μL reaction buffer or drug diluted in buffer (e.g., 4 μL/100 so final DMSO is 1% in reaction) is added to each. Pipetting up and down mixes the samples. Alternatively, the enzyme can be diluted to 1215 μL. In this case 9.8 μL is added per well and 0.2 μL compound is added in DMSO. To prepare 1 mL of substrate solution, 955 μL reaction buffer, 40 μL PIP2, and 2.5 μL ATP are mixed. 10 μL of substrate is added to each well to start the reaction.
(§3) Stop/detector mix is prepared by mixing 4 μL Red detector and 1.6 μL or 2.0 μL GST-GRP with 1 mL Stop buffer, which results in 10 nM probe and 70 nM GST-GRP). 20 μL of the stop/detector mix is added to each well to stop the reaction. The plates are read after 30-90 minutes keeping the red probe solutions dark. For the zero time point, stop/detector mix is added to the enzyme just before adding substrate. For an extra control, stop/detector mix is added to buffer (no enzyme) and substrate or to just buffer (no substrate). […] Plates are read on machines with filters for Tamra. The units are mP with no enzyme controls reading app 190-220 mP units. Fully active enzyme reduces fluorescence polarization down to 70-100 mP after 30 minutes.

[3] = target: T3, PI3K (Homo sapiens, UniProt P42336); assay: Fluorescence polarization assay for PI3K; type: biochemical; conditions: read-out: PI3 Kinase α IC50
T3 construct: PI3 Kinase α IC50; other: PI3 Kinase α; other: PI3 Kinase α isoform, fluorescence polarization
Experimental: as §1, §2, §3

[4] = tested on: breast line MDA468; assay: In vitro cell culture growth assay (MTS), MDA468; type: cell-based; conditions: Homo sapiens, 72 h, MDA468 cells, three days after drug treatment
Experimental: Human tumor cell lines used include prostate lines LNCap and PC3MM2, breast lines MDA468, MCF7, renal line HTB44 (A498), colon line HCT116, and ovarian line OVCAR3. Cells were plated in 96-well culture plates. One day following plating, the inhibitors were added to cells. Three days after drug treatment, viable cell densities were determined by metabolic conversion (by viable cells) of the dye MTS, a well-established cell proliferation assay. The assays were performed using an assay kit purchased from Promega Corp. (Madison, Wis.) following the protocol supplied with the kit. The MTS assay results were read in a 96-well plate reader by measuring absorbance at 490 nm. The effect of each treatment was calculated as percent of control growth relative to the vehicle-treated cells grown in the same culture plate.

[5] = purified human mTOR enzyme, DELFIA format
[6] = PI3 Kinase γ isoform, fluorescence polarization
[7] = PI3 Kinase α isoform, fluorescence polarization

T2 sequence (P48736 whole entry, canonical isoform): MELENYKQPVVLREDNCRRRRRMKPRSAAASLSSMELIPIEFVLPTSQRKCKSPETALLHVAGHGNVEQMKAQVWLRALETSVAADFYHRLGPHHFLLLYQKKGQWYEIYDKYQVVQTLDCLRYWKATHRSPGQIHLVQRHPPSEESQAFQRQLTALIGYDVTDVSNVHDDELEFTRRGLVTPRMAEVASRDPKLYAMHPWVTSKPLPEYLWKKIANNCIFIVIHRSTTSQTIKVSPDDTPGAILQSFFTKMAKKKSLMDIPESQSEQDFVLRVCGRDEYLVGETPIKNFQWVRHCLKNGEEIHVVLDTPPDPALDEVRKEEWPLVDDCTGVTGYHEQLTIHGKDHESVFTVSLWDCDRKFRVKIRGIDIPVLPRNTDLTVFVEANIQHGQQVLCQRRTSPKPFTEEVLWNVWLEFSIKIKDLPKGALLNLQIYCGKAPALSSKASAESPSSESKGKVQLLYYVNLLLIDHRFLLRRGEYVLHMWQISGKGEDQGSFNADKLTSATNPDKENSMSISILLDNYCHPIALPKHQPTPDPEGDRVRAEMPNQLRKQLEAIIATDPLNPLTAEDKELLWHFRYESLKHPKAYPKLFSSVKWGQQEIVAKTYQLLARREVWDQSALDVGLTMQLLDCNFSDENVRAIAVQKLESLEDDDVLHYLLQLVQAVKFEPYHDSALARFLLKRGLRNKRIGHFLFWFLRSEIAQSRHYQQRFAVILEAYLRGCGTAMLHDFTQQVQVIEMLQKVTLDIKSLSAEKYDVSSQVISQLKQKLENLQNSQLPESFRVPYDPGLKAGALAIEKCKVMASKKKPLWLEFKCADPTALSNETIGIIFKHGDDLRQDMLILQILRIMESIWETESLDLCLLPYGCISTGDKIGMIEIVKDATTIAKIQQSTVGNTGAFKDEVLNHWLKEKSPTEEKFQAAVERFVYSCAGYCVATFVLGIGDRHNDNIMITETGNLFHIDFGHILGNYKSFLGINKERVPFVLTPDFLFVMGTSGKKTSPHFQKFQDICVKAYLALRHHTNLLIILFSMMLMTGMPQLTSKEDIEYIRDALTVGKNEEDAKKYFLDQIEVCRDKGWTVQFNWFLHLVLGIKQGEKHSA
T3 sequence (P42336 whole entry, canonical isoform): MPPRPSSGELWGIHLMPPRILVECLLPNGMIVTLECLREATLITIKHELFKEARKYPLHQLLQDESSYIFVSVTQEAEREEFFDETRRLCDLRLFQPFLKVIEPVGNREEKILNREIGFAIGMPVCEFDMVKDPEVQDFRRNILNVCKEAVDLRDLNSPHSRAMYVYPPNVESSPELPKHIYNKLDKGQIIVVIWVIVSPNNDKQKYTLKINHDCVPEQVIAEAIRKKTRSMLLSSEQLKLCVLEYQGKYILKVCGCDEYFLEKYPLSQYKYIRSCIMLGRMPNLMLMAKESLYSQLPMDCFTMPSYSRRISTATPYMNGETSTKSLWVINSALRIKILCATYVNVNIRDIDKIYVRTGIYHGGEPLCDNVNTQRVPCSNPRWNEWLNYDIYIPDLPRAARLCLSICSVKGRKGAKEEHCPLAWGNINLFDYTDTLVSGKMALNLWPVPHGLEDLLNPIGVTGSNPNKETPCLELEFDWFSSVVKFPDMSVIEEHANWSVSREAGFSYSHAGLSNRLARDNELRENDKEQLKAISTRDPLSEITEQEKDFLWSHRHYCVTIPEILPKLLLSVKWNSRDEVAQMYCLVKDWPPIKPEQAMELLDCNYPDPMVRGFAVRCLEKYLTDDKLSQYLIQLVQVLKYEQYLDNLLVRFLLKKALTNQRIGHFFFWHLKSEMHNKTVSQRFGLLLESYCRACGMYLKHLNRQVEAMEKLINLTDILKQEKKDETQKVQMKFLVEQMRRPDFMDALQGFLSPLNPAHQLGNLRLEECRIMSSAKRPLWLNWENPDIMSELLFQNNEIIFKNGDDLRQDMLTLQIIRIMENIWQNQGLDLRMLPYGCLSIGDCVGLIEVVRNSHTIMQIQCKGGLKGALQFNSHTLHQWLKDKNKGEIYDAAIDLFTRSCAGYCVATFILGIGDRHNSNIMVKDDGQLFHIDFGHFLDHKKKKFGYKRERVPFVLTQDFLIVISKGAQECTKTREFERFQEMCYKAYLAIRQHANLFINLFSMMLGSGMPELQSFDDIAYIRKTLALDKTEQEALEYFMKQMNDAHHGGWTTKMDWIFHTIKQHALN

Row | IC50 [1] | IC50 ([2]; PI3 Kinase γ) | IC50 ([3]; PI3 Kinase α) | IC50 [1, 5] | IC50 [2, 6] | IC50 [3, 7] | Compound | IC50 [4]
1 |  |  |  | 0.76 nM | > 10000 nM | 1260 nM | CCNC(=O)Nc1ccc(-c2nc(N3CC4CCC(C3)O4)c3sccc3n2)cc1 [Example 407, 1-ethyl-3-{4-[4-(8-oxa-3-azabicyclo[3.2.1]oct-3-yl)thieno[3,2-d]pyrimidin-2-yl]phenyl}urea] | 250 nM
2 |  |  |  | 0.31 nM | ≥ 10000 nM | 324 nM | O=C(NCCO)Nc1ccc(-c2nc(N3CC4CCC(C3)O4)c3sccc3n2)cc1 [Example 409, 1-(2-hydroxyethyl)-3-{4-[4-(8-oxa-3-azabicyclo[3.2.1]oct-3-yl)thieno[3,2-d]pyrimidin-2-yl]phenyl}urea] | 475 nM
3 |  |  |  | 1.3 nM | 2190 nM | 82 nM | O=C(Nc1ccccc1)Nc1ccc(-c2nc(N3CC4CCC(C3)O4)c3sccc3n2)cc1 [Example 411, 1-{4-[4-(8-oxa-3-azabicyclo[3.2.1]oct-3-yl)thieno[3,2-d]pyrimidin-2-yl]phenyl}-3-phenylurea] | 380 nM
4 |  |  |  | 100 nM | > 10000 nM |  | Nc1ccc(-c2nc(N3CC4CCC(C3)O4)c3sccc3n2)cc1 [Example 414, 4-[4-(8-oxa-3-azabicyclo[3.2.1]oct-3-yl)thieno[3,2-d]pyrimidin-2-yl]aniline] | 30000 nM
5 |  |  |  | 61 nM | > 10000 nM | 399 nM | Oc1cccc(-c2nc(N3CC4CCC(C3)O4)c3sccc3n2)c1 [Example 417, 3-[4-(8-oxa-3-azabicyclo[3.2.1]oct-3-yl)thieno[3,2-d]pyrimidin-2-yl]phenol] | 7800 nM
6 |  |  |  | 34 nM | > 10000 nM | 6270 nM | Oc1ccc(-c2nc(N3CC4CCC(C3)O4)c3sccc3n2)cc1 [Example 418, 4-[4-(8-oxa-3-azabicyclo[3.2.1]oct-3-yl)thieno[3,2-d]pyrimidin-2-yl]phenol] | 17000 nM
7 |  |  |  | 19.5 nM | 5720 nM | 322 nM | CNC(=O)Nc1ccc(-c2nc(N3CC4CCC(C3)O4)c3sc(CN4CCN(C)CC4)cc3n2)cc1 [Example 423, 1-methyl-3-(4-{6-[(4-methylpiperazin-1-yl)methyl]-4-(8-oxa-3-azabicyclo[3.2.1]oct-3-yl)thieno[3,2-d]pyrimidin-2-yl}phenyl)urea] | 1000 nM

The remaining lines, values behind:

Row | Compound | IC50 [1] | IC50 ([2]; PI3 Kinase γ) | IC50 ([3]; PI3 Kinase α) | IC50 [1, 5] | IC50 [2, 6] | IC50 [3, 7] | IC50 [4]
8 | O=C(Nc1ccncc1)Nc1ccc(-c2nc(N3CC4CCC(C3)O4)c3cnn(CC(F)(F)F)c3n2)cc1 [Example 5, 1-{4-[4-(8-oxa-3-azabicyclo[3.2.1]oct-3-yl)-1-(2,2,2-trifluoroethyl)-1H-pyrazolo[3,4-d]pyrimidin-6-yl]phenyl}-3-pyridin-4-ylurea] | 0.19 nM | 1030 nM | 168 nM |  |  |  | 
9 | CNC(=O)Nc1ccc(-c2nc(N3CC4CCC(C3)O4)c3cnn(C4CCC5(CC4)OCCO5)c3n2)cc1 [Example 62, 1-{4-[1-(1,4-dioxaspiro[4.5]dec-8-yl)-4-(8-oxa-3-azabicyclo[3.2.1]oct-3-yl)-1H-pyrazolo[3,4-d]pyrimidin-6-yl]phenyl}-3-methylurea] | 0.16 nM | > 10000 nM | 2010 nM |  |  |  | 
10 | CNC(=O)Nc1ccc(-c2nc(N3CC4CCC(C3)O4)c3cnn(C4CCC(=O)CC4)c3n2)cc1 [Example 63, 1-methyl-3-{4-[4-(8-oxa-3-azabicyclo[3.2.1]oct-3-yl)-1-(4-oxocyclohexyl)-1H-pyrazolo[3,4-d]pyrimidin-6-yl]phenyl}urea] | 0.23 nM | > 10000 nM |  |  |  |  | 
11 | CNC(=O)Nc1ccc(-c2nc(N3CC4CCC(C3)O4)c3cnn(C4CCC(O)CC4)c3n2)cc1 (centres unmarked) [Example 64, 1-{4-[1-(4-hydroxycyclohexyl)-4-(8-oxa-3-azabicyclo[3.2.1]oct-3-yl)-1H-pyrazolo[3,4-d]pyrimidin-6-yl]phenyl}-3-methylurea] | 0.21 nM | 5000 nM | 1310 nM |  |  |  | 
12 | CC(C)C(=O)N1CCC(n2ncc3c(N4CC5CCC(C4)O5)nc(-c4ccc(N)cc4)nc32)CC1 [Example 80, 4-[1-(1-isobutyrylpiperidin-4-yl)-4-(8-oxa-3-azabicyclo[3.2.1]oct-3-yl)-1H-pyrazolo[3,4-d]pyrimidin-6-yl]aniline] | 100 nM | > 10000 nM | > 10000 nM |  |  |  | 
13 | O=C(Nc1ccncc1)Nc1ccc(-c2nc(N3CC4CCC(C3)O4)c3cnn(CC(F)(F)F)c3n2)cc1 [Example 104, 1-{4-[4-(8-oxa-3-azabicyclo[3.2.1]oct-3-yl)-1-(2,2,2-trifluoroethyl)-1H-pyrazolo[3,4-d]pyrimidin-6-yl]phenyl}-3-pyridin-4-ylurea] | 0.16 nM | 695 nM | 201 nM |  |  |  | 
14 | CNC(=O)Nc1ccc(-c2nc(N3CC4CCC(C3)O4)c3cnn(C4CCC(O)CC4)c3n2)cc1 (centres unmarked) [Example 108, 1-(4-(4-(8-oxa-3-azabicyclo[3.2.1]octan-3-yl)-1-((1r,4r)-4-hydroxycyclohexyl)-1H-pyrazolo[3,4-d]pyrimidin-6-yl)phenyl)-3-methylurea] | 0.24 nM | > 10000 nM | 882 nM |  |  |  | 
15 | CNC(=O)Nc1ccc(-c2nc(N3CC4CCC(C3)O4)c3cnn([C@H]4CC[C@@H](O)CC4)c3n2)cc1 [Example 109, 1-(4-(4-(8-oxa-3-azabicyclo[3.2.1]octan-3-yl)-1-((1s,4s)-4-hydroxycyclohexyl)-1H-pyrazolo[3,4-d]pyrimidin-6-yl)phenyl)-3-methylurea] | 0.3 nM | > 10000 nM | 227 nM |  |  |  | 
16 | CCNC(=O)Nc1ccc(-c2nc(N3CC4CCC(C3)O4)c3cnn(C4CCC(OC)CC4)c3n2)cc1 (centres unmarked) [Example 301, 1-ethyl-3-{4-[1-(4-methoxycyclohexyl)-4-(8-oxa-3-azabicyclo[3.2.1]oct-3-yl)-1H-pyrazolo[3,4-d]pyrimidin-6-yl]phenyl}urea] |  |  |  | 0.335 nM | > 10000 nM | 2030 nM | 
17 | CNC(=O)Nc1ccc(-c2nc(N3CC4CCC(C3)O4)c3cnn(C4CCC(N5CCN(C)CC5)CC4)c3n2)cc1 (centres unmarked) [Example 329, 1-methyl-3-(4-{1-[4-(4-methylpiperazin-1-yl)cyclohexyl]-4-(8-oxa-3-azabicyclo[3.2.1]oct-3-yl)-1H-pyrazolo[3,4-d]pyrimidin-6-yl}phenyl)urea] |  |  |  | 1.75 nM | 4350 nM | 357 nM | 
18 | N-{4-[({4-[1-methyl-4-(8-oxa-3-azabicyclo[3.2.1]oct-3-yl)-1H-pyrazolo[3,4-d]pyrimidin-6-yl]phenyl}carbamoyl)amino]phenyl}acetamide [Example 259] | 2.4 nM | 2720 nM | 1050 nM |  |  |  | 
19 | N~2~,N~2~-dimethyl-N-{4-[({4-[1-methyl-4-(8-oxa-3-azabicyclo[3.2.1]oct-3-yl)-1H-pyrazolo[3,4-d]pyrimidin-6-yl]phenyl}carbamoyl)amino]phenyl}glycinamide [Example 258] | 3.95 nM | 1410 nM | 346 nM |  |  |  | 

Reference: patent publication US8129371B2, “Thienopyrimidine and pyrazolopyrimidine compounds and their use as mTOR kinase and PI3 kinase inhibitors” (Wyeth LLC, priority 2007, dated 2012)
